“Also recorded” adds a separate entry of the source.
Columns and labels:
[1] = test system: BALB/c mice; test: Acute OVA-induced AHR (PenH, methacholine challenge), a4-vFLIP peptide; format: in vivo; settings: acute OVA model, 300 μg i.p. days 11 to 13, compared to OVA+TAT pep, P<0.003
Method: Briefly on day 1, naïve BALB/c mice (N=5 per group) received an intraperitoneal (i.p.) injection with ovalbumin (OVA) ([…]) in Alum (2 mg). After resting for 10 days, mice were treated intranasally (i.n.) with OVA (50 μg) and i.p. with the autophagy inducer α4-TAT-vFLIP ([…]) on days 11 to 13. On day 14, the enhanced pause (PenH) variable was measured to determine airway hyperreactivity (AHR).
Briefly, administration of alpha4-TAT-vFLIP (a.k.a. a4-vFLIP) peptide restores lung function in an acute model of OVA induced asthma. Increasing doses of methacholine, a muscarinic receptor agonist to induce AHR, was administered to the different treatment groups of mice and the PenH was determined. […] Ctrl group (dark triangles) after methacholine challenge. […] Therefore, the autophagy peptide inducer a4-vFLIP was able to reduce AHR after OVA challenge.

[2] = test system: BALB/c mice; test: Lung histology (hematoxylin and eosin), OVA model; format: in vivo; settings: OVA+vFLIP compared to OVA alone
Excerpt: (§1) Thereafter, lung sections were stained with hematoxylin and eosin (HE) from the different groups in the HDM and OVA models. Airway inflammation and remodeling were decreased in the HDM/OVA+vFLIP compared to OVA/HDM alone based on smooth muscle hyperplasia, epithelial cell proliferation, subepithelial fibrosis and basement membrane thickening.

[3] = test system: BALB/c mice; test: Acute HDM-induced AHR (PenH, methacholine challenge), a4-vFLIP peptide; format: in vivo; settings: acute HDM model, 300 μg i.p. days 13 to 15, compared to HDM+TAT pep, P<0.003
Method: FIG. 9D illustrates a protocol to induce acute AHR by HDM. On day 1, naïve BALB/c mice (N=5 per group) received an intranasal (i.n.) injection with house dust mite (HDM) ([…]). After resting for 6 days, mice were treated intranasally (i.n.) with HDM ([…]) from days 7 to 14 and i.p. with the autophagy inducer a4-TAT-vFLIP (300 μg) on days 13 to 15. On day 16, the enhanced pause (PenH) variable was measured to determine airway hyperreactivity (AHR).
Increasing doses of methacholine, a muscarinic receptor agonist to induce AHR, was administered to the different treatment groups of mice and the PenH was determined. […] Ctrl group (dark triangles) after methacholine challenge. […] Therefore, the autophagy peptide inducer was able to reduce AHR after HDM challenge.

[4] = test system: BALB/c mice; test: Chronic OVA-induced AHR (PenH); format: in vivo; settings: TAT as irrelevant peptide control
Method: BALB/c mice were treated with OVA to induce chronic AHR and administered a4-TAT-vFLIP (as autophagy inducer) and TAT (as irrelevant peptide, control). AHR was assessed by Pen H (enhanced pause).

[5] = test system: BALB/c mice; test: Lung histology (hematoxylin and eosin), HDM model; format: in vivo; settings: HDM+vFLIP compared to HDM alone
Excerpt: as §1

[6] = test system: moderate to severe patients with asthma; settings: clinical trial; cited from earlier work
[7] = test system: BALB/c mice; test: OVA-induced AHR in BALB/c mice treated with autophagy inducers or inhibitor (whole body plethysmography, PenH); format: in vivo; settings: i.p., DCMI 1 mg/kg, tamoxifen 100 μM, clonidine 0.1 mg/kg, carbamazepine 20 mg/kg, compared to OVA controls
Method: FIGS. 3A to 3E illustrate altered development of AHR and lung inflammation in BALB/c mice treated with autophagy inducers and inhibitor. FIG. 3A is a schematic for the sensitization and challenge protocol with administration of autophagy inhibitors and inducers via i.p. injection. FIGS. 3B and C show AHR was determined by whole body plethysmography and is expressed as mean PenH in the presence or absence of (FIG. 3B) autophagy inhibitor desmethylclomipramine (“DCMI”) 1 mg/kg or (FIG. 3C) autophagy inducers tamoxifen 100 μM, clonidine 0.1 mg/kg or carbamazepine 20 mg/kg. FIGS. 3D and E are a quantitative determination of cellular infiltration into BAL was determined by cytospin preparation in the presence or absence of (FIG. 3D) autophagy inhibitor and (FIG. 3E) autophagy inducers. Representative data from two independent experiments with 3 mice per group, expressed as mean±SEM. PBS refer to naïve BALB/c animals. Figure legend: Total: Total of number of cells in the BAL, PMN: polymorphonuclear cells, EOS: Eosinophils, MACRO: Macrophages, Lymph: Lymphocytes
Autophagy inducers (Carbamazepin, Tamoxifen, and Clonidine) and inhibitors (DCMI) were administered on days 10 to 13 (FIG. 9A). […] This was the opposite when treated with the autophagy inducers (Carbamazepin, Tamoxifen, and Clonidine) (FIG. 9C). Therefore, autophagy is an important mediator in AHR.
There are many reported small molecule inducers and inhibitors of autophagy (Balgi et al. (2009) PLoS One 4:e7124; Mizushima et al. (2006) Autophagy 2:302-304; Vooijs et al. (2001) EMBO Rep 2:292-297; Fujita et al. (2008) Mol Biol Cell 19:2092-2100; Kuma et al. (2004) Nature 432:1032-1036; Inoue et al. (2011) Biochem Biophys Res Commun 405:13-18). In preliminary studies, Applicant has used a range of different inducers (tamoxifen (Akbari et al. (2001) Nat Immunol 2:725-731), clonidine (Mizushima et al. (2006) Autophagy 2:302-304) and carbamazepine (Renna et al. (2010) J Biol Chem 285:11061-11067)) and one inhibitor (desmethylclomipramine (“DCMI”) (Balgi et al. (2009) PLoS One 4:e7124)). A standard sensitization and challenge protocol was used for the induction of AHR in BALB/c (FIG. 3A). […] This is in agreement with Applicant's findings using the Atg5Δ animals that inhibition of autophagy has a deleterious effect on lung function. When autophagy is induced (with tamoxifen, clonidine or carbamazepine) AHR after sensitization and challenge with OVA is reduced compared to controls (FIG. 3C). […] When autophagy is inhibited total cell numbers in the BAL are increased (FIG. 3D) in contrast, in the presence of autophagy inducers total cell numbers and in particular eosinophils are reduced (FIG. 3E).

[8] = test system: BALB/c mice; test: Cellular infiltration into BAL by cytospin preparation, OVA model; format: in vivo; settings: OVA sensitized and challenged BALB/c, i.p. treatment
Method: FIGS. 3A to 3E illustrate altered development of AHR and lung inflammation in BALB/c mice treated with autophagy inducers and inhibitor. FIG. 3A is a schematic for the sensitization and challenge protocol with administration of autophagy inhibitors and inducers via i.p. injection. FIGS. 3B and C show AHR was determined by whole body plethysmography and is expressed as mean PenH in the presence or absence of (FIG. 3B) autophagy inhibitor desmethylclomipramine (“DCMI”) 1 mg/kg or (FIG. 3C) autophagy inducers tamoxifen 100 μM, clonidine 0.1 mg/kg or carbamazepine 20 mg/kg. FIGS. 3D and E are a quantitative determination of cellular infiltration into BAL was determined by cytospin preparation in the presence or absence of (FIG. 3D) autophagy inhibitor and (FIG. 3E) autophagy inducers. Representative data from two independent experiments with 3 mice per group, expressed as mean±SEM. PBS refer to naïve BALB/c animals. Figure legend: Total: Total of number of cells in the BAL, PMN: polymorphonuclear cells, EOS: Eosinophils, MACRO: Macrophages, Lymph: Lymphocytes […]

## RRRQRRKKRGY-G-LMNSFVCLIVSS (RRRQRRKKRGYGLMNSFVCLIVSS) [a4-vFLIP, autophagy peptide inducer, 24aa TAT-fused α4 vFLIP peptide]
[1]
  AHR (PenH) after methacholine challenge: statistically significant reduction
[2]
  Airway inflammation and remodeling (smooth muscle hyperplasia, epithelial cell proliferation, subepithelial fibrosis, basement membrane thickening): decreased
[3]
  AHR (PenH) after methacholine challenge: statistically significant reduction
[4]
  chronic AHR (PenH): decreased levels of AHR
[5]
  Airway inflammation and remodeling (smooth muscle hyperplasia, epithelial cell proliferation, subepithelial fibrosis, basement membrane thickening): decreased

## NC(=O)N1c2ccccc2C=Cc2ccccc21 [carbamazepine]
[6]
  efficacy for the treatment of asthma: improve asthma; also recorded: high efficacy
[7]
  AHR (mean PenH) after sensitization and challenge with OVA: reduced
[7]; listed as Carbamazepin
  AHR (mean PenH) after sensitization and challenge with OVA: opposite

## CNCCCN1c2ccccc2CCc2ccc(Cl)cc21 [DCMI, desmethylclomipramine]
[8]
  total cell numbers in the BAL: increased
[7]
  AHR (mean PenH) after sensitization and challenge with OVA: greatly increased; also recorded: significant increase

## Clc1cccc(Cl)c1N=C1NCCN1 [clonidine]
[7]
  AHR (mean PenH) after sensitization and challenge with OVA: reduced
[7]; listed as Clonidine
  AHR (mean PenH) after sensitization and challenge with OVA: opposite

## CC/C(=C(\c1ccccc1)c1ccc(OCCN(C)C)cc1)c1ccccc1 [tamoxifen]
[7]
  AHR (mean PenH) after sensitization and challenge with OVA: reduced
[7]; listed as Tamoxifen
  AHR (mean PenH) after sensitization and challenge with OVA: opposite
